Measured values taken from US20260083687A1, “COMPOUNDS FOR REDUCING LACTATION AND IMPROVING HEALTH” (AHV International B.V., priority 2022, published 2026).
Several values for one entry are separate records, joined by “and”; a condition that tells them apart may be missing. Equal values may be shown once.

Test system: cows
Test: Effect of 40 ml and 80 ml oral DPD capsule vs placebo on the milk yield of cows (Example 1)
Type: in vivo, cow
Design: average milk drop (Difference: observed minus expected milk yield) / average milk drop (difference): unit not given here
Settings: for Milk production: 40 ml DPD oral capsule on day 13, individual cows
Experimental: 15 cows from 3 different farms were used in study 1 and 30 cows from 4 different farms were used in study 2. […] The cows are milked twice a day. The cows were housed in free stables. […] The farmers were not informed which cows were treated.
The placebo group existed of 8 cows, whereas the size of the treated group was 7 cows.
For study 2, the gelatin capsule contained 80 ml of the DPD and the gelatine capsule for the placebo group contained tap water. Nine cows were administered a single dose of DPD 7 to 14 days before the start of their dry-off period and nine cows were administered a single dose of the placebo capsule. The cows were placed randomly in the DPD or placebo group. This was done per group that was dried off at the same time for every farm individually, so that every farm had 50% of the cows in the treatment group and 50% in the control group.
On t =13 days the DPD-containing capsules and the placebo capsules were administered.
The following hypothesis was tested and compared by statistical analysis: H0 is defined as there is no difference between the relative milk production before and after treatment between administering of the DPD bolus and placebo, and H1 is defined as there is a difference between the relative milk production before and after treatment between the DPD and placebo group.
The data were processed as follows: based on the data obtained from day 0, 1, 2, 3 . . . 12 the expected milk yields on day 13, 14, […] were calculated by linear regression for each cow. On t=13 the Placebo-capsule or DPD-containing capsule were administered into the rumen. The predicted data (as if no administration of a Placebo or DPD-containing capsule has taken place) and actual milk yields after administration were compared from t=13 days and the milk drop was calculated. This was performed for all the cows in the tests.
Hereafter, the average milk drop was calculated as the difference between the observed and the expected milk yield per day, which is calculated by comparing the expected milk yields that were obtained via linear regression, and the actual milk yields, obtained after treatment with a Placebo or DPD.
The Null Hypothesis is that the difference is zero. We calculate the P-values for these differences using a permutation test (5000 samples).
The Null Hypothesis was defined that that the difference of the 6 treatment cows and Placebo cows is zero. We calculate the P-values for these differences using a permutation test (5000 samples).

CCCSSCCC [DPD, di-n-propyl disulfide]
Milk production (day 1 (before treatment)): 15.9 and 25.8
Milk production (day 2 (before treatment)): 15.3 and 31.7 and 5.9
Milk production (day 3 (before treatment)): 16 and 30.4 and −1.3
Milk production (day 4 (before treatment)): 15.6 and 29.9
Milk production (day 5 (before treatment)): 15.2 and 27.7
Milk production (day 6 (before treatment)): 14.5 and 28.4 and 23.6 and 24.5
Milk production (day 7 (before treatment)): 14.9 and 29.3 and 24 and 24.4
Milk production (day 8 (before treatment)): 13.4 and 28.1 and 22.4 and 24.6
Milk production (day 9 (before treatment)): 13.6 and 28.4 and 24.4 and 24.7
Milk production (day 10 (before treatment)): 13.8 and 27 and 23.4 and 25.3
Milk production (day 11 (before treatment)): 13.7 and 28.8 and 24.2 and 22.5
Milk production (day 12 (before treatment)): 12.9 and 27 and 21.7 and 22.2
Milk production (day 13 (day of treatment)): 12.9 and 27.7 and 23.2 and 20.4
Milk production (day 14): 12 and 26.4 and 22.2 and 22.3
Milk production (day 15): 11.4 and 23.7 and 23.1 and 20.5
Milk production (day 16): 11.4 and 21.5 and 23.7 and 24.4
Milk production (day 17): 12.8 and 25.4 and 23.1 and 22
Milk production (day 18): 10.9 and 27.5 and 23.2 and 14.8
Milk production (day 19): 11.6 and 25.7 and 22.9 and 9.8
Milk production (day 20): 10.2 and 24.8 and 22.3 and 24.3
Milk production (day 21): 9.9 and 23 and 21.3 and 25.8
effect on milk yield (40 ml DPD vs placebo): not in a significant decrease on milk yield
Mean Difference Treatment − Placebo (40 ml DPD, day 14): −0.3233 litres milk per day per cow
Significant (effect on milk yield vs placebo) (40 ml DPD, day 14): No
average milk drop (Difference: observed minus expected milk yield) (40 ml DPD, day 14): −0.226
Mean Difference Treatment − Placebo (40 ml DPD, day 15): −0.873 litres milk per day per cow
Significant (effect on milk yield vs placebo) (40 ml DPD, day 15): No
average milk drop (Difference: observed minus expected milk yield) (40 ml DPD, day 15): −0.9122
Mean Difference Treatment − Placebo (40 ml DPD, day 16): 1.599 litres milk per day per cow
Significant (effect on milk yield vs placebo) (40 ml DPD, day 16): No
average milk drop (Difference: observed minus expected milk yield) (40 ml DPD, day 16): 1.673
Mean Difference Treatment − Placebo (40 ml DPD, day 17): −0.4365 litres milk per day per cow
Significant (effect on milk yield vs placebo) (40 ml DPD, day 17): No
average milk drop (Difference: observed minus expected milk yield) (40 ml DPD, day 17): 1.201
Mean Difference Treatment − Placebo (40 ml DPD, day 18): −0.5789 litres milk per day per cow
Significant (effect on milk yield vs placebo) (40 ml DPD, day 18): No
average milk drop (Difference: observed minus expected milk yield) (40 ml DPD, day 18): 0.4719
Mean Difference Treatment − Placebo (40 ml DPD, day 19): −0.9982 litres milk per day per cow
Significant (effect on milk yield vs placebo) (40 ml DPD, day 19): No
average milk drop (Difference: observed minus expected milk yield) (40 ml DPD, day 19): −0.2714
Mean Difference Treatment − Placebo (40 ml DPD, day 20): −0.296 litres milk per day per cow
Significant (effect on milk yield vs placebo) (40 ml DPD, day 20): No
average milk drop (Difference: observed minus expected milk yield) (40 ml DPD, day 20): 1.657
Mean Difference Treatment − Placebo (40 ml DPD, day 21): 0.1722 litres milk per day per cow
Significant (effect on milk yield vs placebo) (40 ml DPD, day 21): No
average milk drop (Difference: observed minus expected milk yield) (40 ml DPD, day 21): 1.713
effect on milk yield (80 ml DPD vs placebo): significant decrease in milk yield
recovery of milk yield production (80 ml DPD, after the 3 days following treatment): recovers after this period
Mean Difference Treatment − Placebo (80 ml DPD, day 13): 0.2566 litres milk per day per cow
Significance (effect on milk yield vs placebo) (80 ml DPD, day 13): No
average milk drop (difference) (80 ml DPD, day 13): 0.3592
Mean Difference Treatment − Placebo (80 ml DPD, day 14): −4.56 litres milk per day per cow
Significance (effect on milk yield vs placebo) (80 ml DPD, day 14): Yes
average milk drop (difference) (80 ml DPD, day 14): −5.726
Mean Difference Treatment − Placebo (80 ml DPD, day 15): −6.729 litres milk per day per cow
Significance (effect on milk yield vs placebo) (80 ml DPD, day 15): Yes
average milk drop (difference) (80 ml DPD, day 15): −7.051
Mean Difference Treatment − Placebo (80 ml DPD, day 16): −4.421 litres milk per day per cow
Significance (effect on milk yield vs placebo) (80 ml DPD, day 16): Yes
average milk drop (difference) (80 ml DPD, day 16): −3.891
Mean Difference Treatment − Placebo (80 ml DPD, day 17): −0.4065 litres milk per day per cow
Significance (effect on milk yield vs placebo) (80 ml DPD, day 17): No
average milk drop (difference) (80 ml DPD, day 17): −1.8508
Mean Difference Treatment − Placebo (80 ml DPD, day 18): 0.2326 litres milk per day per cow
Significance (effect on milk yield vs placebo) (80 ml DPD, day 18): No
average milk drop (difference) (80 ml DPD, day 18): −1.4323
Mean Difference Treatment − Placebo (80 ml DPD, day 19): 0.9803 litres milk per day per cow
Significance (effect on milk yield vs placebo) (80 ml DPD, day 19): No
average milk drop (difference) (80 ml DPD, day 19): −0.1878
Mean Difference Treatment − Placebo (80 ml DPD, day 20): 1.162 litres milk per day per cow
Significance (effect on milk yield vs placebo) (80 ml DPD, day 20): No
average milk drop (difference) (80 ml DPD, day 20): 0.262
decrease of milk production compared to the placebo group (average) (80 ml DPD, next 3 days after treatment): 6 litres per day per cow
decreased milk production (DPD, day 2 after treatment): 7.7 L/day
